Common to all, as to assay: microbe, parasite or virus in culture
One assay deals with S. aureus ATCC 29213. It counts as cell-based, Staphylococcus aureus. To be noted: ATCC 29213. As to the method: (§1) Clinical isolates of CRE, MRSA and VRE were obtained from Lancet Laboratories, Durban, South Africa, with approval BE394/15 from the Biomedical Research Ethical Committee of the University of KwaZulu-Natal. Five reference strains of bacteria, namely Escherichia coli ATCC 25922, Pseudomonas aeruginosa ATCC 27853, Enterococcus faecium ATCC 35667, Staphylococcus aureus ATCC 29213 and Bacillus subtilis ATCC 6051 were supplied by the American Type Culture Collection (ATCC).
(§2) MIC values were determined by the broth microdilution method and the significance of the values obtained was interpreted following the guidelines of the Clinical and Laboratory Standards for Antimicrobial Susceptibility Testing.. The effect of human serum on the antimicrobial effect of the molecules tested was determined in a similar way to the MIC method used above in a solution of 50% human serum plus Mueller–Hinton broth.

Assay [1] has as its system MRSA (methicillin-resistant S. aureus) isolates. The class given is cell-based. As to the method: as §1, §2
A further assay relates to E. coli ATCC 25822. It counts as cell-based, Escherichia coli. The following applies: ATCC 25822. As to the method:
as §1, §2

In a further assay the test system is E. faecium ATCC 35667. The class given is cell-based, Enterococcus faecium. To be noted: ATCC 35667. Here is the method: as §1, §2
The subject of another assay is P. aeruginosa ATCC 27853. It counts as cell-based, Pseudomonas aeruginosa. The following applies: ATCC 27853. Here is the method: as §1, §2
For a further assay, the system named is B. subtilis ATCC 6051. It counts as cell-based, Bacillus subtilis. The following applies: ATCC 6051. As to the method:
as §1, §2

The structures appear in SMILES notation. Values after ≈ are worked out from the molar mass of the structure shown. Bridge positions count the residues as written; N and C are the ends. Side chains are listed from the residue outwards. Peptide text beside a SMILES is read from it. I, II: the chains in the order shown. * marks the point of attachment. Lauroyl = CCCCCCCCCCCC(=O)*; Hexanoyl = CCCCCC(=O)*

Regarding `CCCCCC(=O)N[C@@H](CCCCN)C(=O)N[C@@H](CC(C)C)C(=O)N[C@@H](CCCCN)C(=O)NCCCC[C@H](NC(=O)[C@H](CCCCN)NC(=O)[C@H](CC(C)C)NC(=O)[C@H](CCCCN)NC(=O)CCCCC)C(=O)N[C@@H](CCCCN)C(=O)N[C@@H](CC(C)C)C(=O)N[C@@H](CCCCN)C(=O)NCCCC[C@H](NC(=O)[C@H](CCCCN)NC(=O)[C@H](CC(C)C)NC(=O)[C@H](CCCCN)NC(=O)[C@H](CCCCNC(=O)[C@H](CCCCN)NC(=O)[C@H](CC(C)C)NC(=O)[C@H](CCCCN)NC(=O)CCCCC)NC(=O)[C@H](CCCCN)NC(=O)[C@H](CC(C)C)NC(=O)[C@H](CCCCN)NC(=O)CCCCC)C(=O)N[C@@H](CC(C)C)C(=O)N[C@@H](CC(C)C)C(=O)N[C@@H](CCCCN)C(=O)N[C@@H](CC(C)C)C(=O)N[C@@H](CC(C)C)C(N)=O` [Hx-G2KLK-L2KL2, (Hx-KLK)4(KKLK)2KLLKLL-NH2] (I: Hexanoyl-KLKK([Lys-Leu-Lys-Hexanoyl])KLKKLLKLL-NH2 / II: Hexanoyl-KLKK([Lys-Leu-Lys-Hexanoyl])KLK; amide I:8-II:C; N-terminus assumed), the MBC against S. aureus ATCC 29213 is 128 µg/mL (≈ 35.6 µM); in the assay on E. coli ATCC 25822, 64 µg/mL (≈ 17.8 µM); in the assay on E. faecium ATCC 35667 it was 64 µg/mL (≈ 17.8 µM); in the assay on P. aeruginosa ATCC 27853, 64 µg/mL (≈ 17.8 µM); against B. subtilis ATCC 6051, 128 µg/mL (≈ 35.6 µM). Further, the MIC with S. aureus ATCC 29213 was 128 µg/mL (≈ 35.6 µM); in assay [1] (methicillin-resistant ) isolates), 64 µg/mL (≈ 17.8 µM); in the assay with E. coli ATCC 25822, 64 µg/mL (≈ 17.8 µM); in the assay with E. faecium ATCC 35667, 32 µg/mL (≈ 8.91 µM); with P. aeruginosa ATCC 27853 it was 64 µg/mL (≈ 17.8 µM); in the assay on B. subtilis ATCC 6051, 64 µg/mL (≈ 17.8 µM).

For `CC1(C)S[C@@H]2[C@H](NC(=O)[C@H](N)c3ccccc3)C(=O)N2[C@H]1C(=O)O` [Amp, reference compound], the MIC in assay [1] (MRSA isolate 440260) was above 512 µg/mL; in assay [1] (MRSA isolate B11970), above 512 µg/mL; in assay [1] (MRSA isolate B13178), above 512 µg/mL; in assay [1] (MRSA isolate P10747) it was above 512 µg/mL; in assay [1] (MRSA isolate P10781), above 512 µg/mL; in assay [1] (MRSA isolate P11520), 512 µg/mL (≈ 1470 µM). Moreover, the MIC in assay [1] (MRSA isolate S18155), in assay [1] (MRSA isolate S18970), in assay [1] (MRSA isolate S37938) and in assay [1] (MRSA isolate T5683) was above 512 µg/mL each time.

In the case of `CCCCCCCCCCCC(=O)N[C@@H](CCCCN)C(=O)N[C@@H](CC(C)C)C(=O)N[C@@H](CCCCN)C(=O)NCCCC[C@H](NC(=O)[C@H](CCCCN)NC(=O)[C@H](CC(C)C)NC(=O)[C@H](CCCCN)NC(=O)CCCCCCCCCCC)C(=O)N[C@@H](CCCCN)C(=O)N[C@@H](CC(C)C)C(=O)N[C@@H](CCCCN)C(=O)NCCCC[C@H](NC(=O)[C@H](CCCCN)NC(=O)[C@H](CC(C)C)NC(=O)[C@H](CCCCN)NC(=O)[C@H](CCCCNC(=O)[C@H](CCCCN)NC(=O)[C@H](CC(C)C)NC(=O)[C@H](CCCCN)NC(=O)CCCCCCCCCCC)NC(=O)[C@H](CCCCN)NC(=O)[C@H](CC(C)C)NC(=O)[C@H](CCCCN)NC(=O)CCCCCCCCCCC)C(=O)N[C@@H](CC(C)C)C(=O)N[C@@H](CC(C)C)C(=O)N[C@@H](CCCCN)C(=O)N[C@@H](CC(C)C)C(=O)N[C@@H](CC(C)C)C(N)=O` [Dd-G2KLK-L2KL2, (Dd-KLK)4(KKLK)2KLLKLL-NH2] (I: Lauroyl-KLKK([Lys-Leu-Lys-Lauroyl])KLKKLLKLL-NH2 / II: Lauroyl-KLKK([Lys-Leu-Lys-Lauroyl])KLK; amide I:8-II:C; N-terminus assumed), the MIC against S. aureus ATCC 29213, in the assay on E. coli ATCC 25822, against E. faecium ATCC 35667, in the assay on P. aeruginosa ATCC 27853 and against B. subtilis ATCC 6051 was above 128 µg/mL throughout.

The values are drawn from article PMC8228121, “Super-Cationic Peptide Dendrimers—Synthesis and Evaluation as Antimicrobial Agents” (Antibiotics, 2021).
